Molecular target: T1, hmGluR1 receptor (Homo sapiens, UniProt Q13255)
T1 construct: expressed in transfected cells
Experiment: IC50 determination: intracellular calcium mobilization (FLIPR) upon Quisqualate stimulation in CHO cells stably expressing hmGluR1
Format: cell-based
Details: against Quisqualate 1 μM (EC80), FLIPR calcium mobilization, read-out: IC50 Class
Outline: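 CHO cells stably expressing hmGluR1 were kept overnight in DMEM high glucose with GPT and 1 mM pyruvate, then loaded 2 h with Calcium 3 dye.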

T1 sequence (Q13255 19-1194): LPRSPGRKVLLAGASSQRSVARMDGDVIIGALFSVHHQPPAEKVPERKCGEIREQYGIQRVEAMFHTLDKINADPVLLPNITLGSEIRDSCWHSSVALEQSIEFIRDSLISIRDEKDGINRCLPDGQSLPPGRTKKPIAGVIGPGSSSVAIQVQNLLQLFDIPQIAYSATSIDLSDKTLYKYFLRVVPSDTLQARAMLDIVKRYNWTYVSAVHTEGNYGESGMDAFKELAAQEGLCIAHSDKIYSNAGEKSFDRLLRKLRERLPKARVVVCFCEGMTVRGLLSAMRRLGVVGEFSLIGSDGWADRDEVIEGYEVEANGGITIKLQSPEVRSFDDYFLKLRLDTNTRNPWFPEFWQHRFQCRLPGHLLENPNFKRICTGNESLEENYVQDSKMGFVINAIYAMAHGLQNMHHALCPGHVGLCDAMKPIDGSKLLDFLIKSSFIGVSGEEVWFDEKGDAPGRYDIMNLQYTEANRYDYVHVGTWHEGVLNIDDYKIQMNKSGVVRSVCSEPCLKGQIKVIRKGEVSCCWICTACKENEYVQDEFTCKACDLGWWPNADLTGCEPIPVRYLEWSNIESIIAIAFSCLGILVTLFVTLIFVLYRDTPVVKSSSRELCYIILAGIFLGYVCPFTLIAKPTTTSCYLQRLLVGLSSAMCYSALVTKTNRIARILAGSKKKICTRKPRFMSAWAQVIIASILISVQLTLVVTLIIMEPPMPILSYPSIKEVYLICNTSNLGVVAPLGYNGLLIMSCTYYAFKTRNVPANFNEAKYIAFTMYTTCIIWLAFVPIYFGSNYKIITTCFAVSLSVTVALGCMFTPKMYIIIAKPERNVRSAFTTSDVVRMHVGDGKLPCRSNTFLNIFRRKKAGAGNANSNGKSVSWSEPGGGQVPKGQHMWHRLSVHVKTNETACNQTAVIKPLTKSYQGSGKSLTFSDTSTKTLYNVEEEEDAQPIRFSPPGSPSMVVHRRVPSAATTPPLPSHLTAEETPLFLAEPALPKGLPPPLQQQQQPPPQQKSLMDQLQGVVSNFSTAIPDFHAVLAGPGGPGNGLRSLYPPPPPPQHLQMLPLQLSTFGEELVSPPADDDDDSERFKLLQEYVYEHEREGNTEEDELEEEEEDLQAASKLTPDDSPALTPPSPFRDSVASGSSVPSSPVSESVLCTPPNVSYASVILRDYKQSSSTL

Row | SMILES | IC50
1 | CN(C)c1ccnc2sc3c(=O)n(CCc4c(Cl)cccc4Cl)cnc3c12 [28EN] | 150 to 1000 nM
2 | O=c1c2sc3ncnc(Nc4ccccc4)c3c2ncn1-c1ccc2ncsc2c1 [95GD] | > 1000 nM
3 | CCOc1cnnc2sc3c(=O)n(-c4ccc(C)cc4)cnc3c12 [161A] | > 1000 nM
4 | Cc1ccc(-n2cnc3c(sc4ncnc(NCC(C)(C)C)c43)c2=O)cc1 [95FP] | > 1000 nM
5 | COc1ccc(-n2cnc3c(sc4ncnc(Nc5ccccc5Cl)c43)c2=O)cc1 [190N] | > 1000 nM
6 | COc1ccc(-n2cnc3c(sc4nc(Cl)cc(N)c43)c2=O)cc1 [59I] | 50 to 150 nM
7 | CN(C)c1cccc2sc3c(=O)n(-c4ccc(F)c(F)c4)cnc3c12 [103P] | 150 to 1000 nM
8 | CC(C)Nc1ccnc2sc3c(=O)n(-c4ccc(Br)cc4)cnc3c12 [28HD] | 150 to 1000 nM
9 | COc1cc(-n2cnc3c(sc4nccc(N(C)C)c43)c2=O)ccc1F [28FW] | 150 to 1000 nM
10 | O=c1c2sc3ncnc(NC4CC4)c3c2ncn1-c1ccc2c(c1)CCO2 [95DK] | < 50 nM
11 | C=C(Cl)CNc1ccnc2sc3c(=O)n(-c4ccc(C)cc4)cnc3c12 [28EY] | < 50 nM
12 | COc1ccc(-n2cnc3c(sc4nccc(NCC(F)(F)F)c43)c2=O)c(C)c1 [28BP] | 150 to 1000 nM
13 | C#CCNc1ncnc2sc3c(=O)n(-c4ccc(Cl)cc4)cnc3c12 [95EG] | < 50 nM
14 | O=c1c2sc3ncccc3c2ncn1-c1ccc(Cl)cc1 [183B] | 150 to 1000 nM
15 | CCc1ccnc2sc3c(=O)n(-c4ccc(Cl)cc4)cnc3c12 [29K] | < 50 nM
16 | COc1ccnc2sc3c(=O)n(-c4ccc(F)cc4)cnc3c12 [compound 180] | 150 to 1000 nM
17 | COC[C@H](C)Nc1ccnc2sc3c(=O)n(-c4ccc(Br)cc4)cnc3c12 [28GZ] | > 1000 nM
18 | COc1ccc(-n2cnc3c(sc4nc(N)cc(NC5CC5)c43)c2=O)cc1 [59G] | < 50 nM
19 | O=c1c2sc3nccc(NC4CC4)c3c2ncn1-c1ccc(OS(=O)(=O)C(F)(F)F)cc1 [28HT] | > 1000 nM
20 | CCN(C)c1ccnc2sc3c(=O)n(-c4ccc5c(c4)CCO5)cnc3c12 [28CH] | < 50 nM
21 | C#CCNc1ccnc2sc3c(=O)n(-c4ccc(OC)c(F)c4)cnc3c12 [28DW] | < 50 nM
22 | C#CCNc1ccnc2sc3c(=O)n(-c4ccc(OC)cc4)cnc3c12 [28DQ] | < 50 nM
23 | COc1ccc(-n2cnc3c(sc4nccc(NCCO)c43)c2=O)cc1 [28DB] | < 50 nM
24 | CCNc1ccnc2sc3c(=O)n(-c4ccc(OC)cc4C)cnc3c12 [28BO] | < 50 nM
25 | CN(CCO)c1ccnc2sc3c(=O)n(-c4ccc5occc5c4)cnc3c12 [28BE] | < 50 nM
26 | COc1ccccc1CCn1cnc2c(sc3nccc(N(C)C)c32)c1=O [28EM] | > 1000 nM
27 | O=c1c2sc3nccc(NC4CC4)c3c2ncn1-c1ccc2scnc2c1 [131J] | < 50 nM
28 | C[C@@H](O)CNc1ccnc2sc3c(=O)n(-c4ccc(Br)cc4)cnc3c12 [28HB] | < 50 nM

Same assay, conditions: against Quisqualate 1 μM (EC80), FLIPR calcium mobilization, read-out: mGluR1 IC50

Row | SMILES | IC50
29 | CN(C)c1ccnc2sc3c(=O)n(C4CCCCCC4)cnc3c12 [7X] | 0.68 nM
30 | Cc1ccc(-n2cnc3c(sc4nccc(N(C)C)c43)c2=O)cc1F [7DH] | 2.02 nM
31 | C#CCNc1ccnc2sc3c(=O)n(-c4ccc(C)cc4)cnc3c12 [28Z] | 1.47 nM

Same assay, conditions: against Quisqualate 1 μM (EC80), class symbols, read-out: mGIuR 1 IC50

Row | SMILES | IC50
32 | CN(C)c1ccnc2sc3c(=O)n(-c4ccc(C(N)=O)cc4)cnc3c12 [7AZ] | > 1000 nM
33 | CN(C)c1ccnc2sc3c(=O)n(C4CCCCCC4)cnc3c12 [7X] | < 50 nM
34 | CCN(C)c1ncnc2sc3c(=O)n(-c4ccc(C)cc4)cnc3c12 [95H] | < 50 nM
35 | COc1ccc(-n2cnc3c(sc4ncc(Br)c(N(C)C)c43)c2=O)cc1 [compound 151] | < 50 nM
36 | CN(C)c1ccnc2c1c1ncn(-c3ccc(Cl)cc3)c(=O)c1n2C [134F] | 150 to 1000 nM
37 | COc1cc(Br)c(-n2cnc3c(sc4nccc(N(C)C)c43)c2=O)c(Br)c1 [7BX] | > 1000 nM
38 | CN(C)c1cc(Cl)nc2sc3c(=O)n(C4CCCCC4)cnc3c12 [compound 83] | 50 to 150 nM
39 | Cc1ccc(-n2cnc3c(sc4nccc(NCCN(C)C)c43)c2=O)cc1 [28BA] | 150 to 1000 nM
40 | CC(=O)c1c(C)nc2sc3c(=O)n(-c4ccc(C)cc4)cnc3c2c1-c1ccc(Cl)cc1 [P-8] | 150 to 1000 nM
41 | CN(C)c1ccnc2sc3c(=O)n(-c4ccc(O)cc4)cnc3c12 [7AK] | < 50 nM
42 | C=CCOc1ccnc2sc3c(=O)n(-c4ccc(C)cc4)cnc3c12 [66D] | < 50 nM
43 | CN(C)c1ccnc2sc3c(=O)n([C@H]4CC[C@H](O)CC4)cnc3c12 [15T] | 150 to 1000 nM
44 | CN1CCC(n2cnc3c(sc4nccc(N(C)C)c43)c2=O)CC1 [15U] | 150 to 1000 nM
45 | CN(C)c1c[n+]([O-])cc2sc3c(=O)n(-c4ccc(Cl)cc4)cnc3c12 [compound 53] | > 1000 nM
46 | CNc1c(Br)cnc2sc3c(=O)n(C4CCCCC4)cnc3c12 [compound 44] | < 50 nM
47 | CN(C)c1ccnc2sc3c(=O)n(Cc4ccc(Cl)c(Cl)c4)cnc3c12 [7S] | > 1000 nM
48 | CN(C)c1ccnc2sc3c(=O)n(-c4ccc5scnc5c4)cnc3c12 [7CR] | < 50 nM
49 | Cc1ccc(-n2cnc3c(sc4nccc(N(C)C)c43)c2=O)cc1F [7DH] | < 50 nM
50 | COc1ccccc1-n1cnc2c(sc3nc(N4CCOCC4)c4c(c32)CC(C)(C)OC4)c1=O [P-5] | 150 to 1000 nM
51 | CN(C)c1ccnc2sc3c(=O)n(-c4ccc5[nH]c(=O)[nH]c5c4)cnc3c12 [7CS] | 150 to 1000 nM
52 | C#CCNc1ccnc2sc3c(=O)n(-c4ccc(C)cc4)cnc3c12 [28Z] | < 50 nM
53 | CN(C)c1ccnc2sc3c(=O)n(N(c4ccccc4)c4ccccc4)cnc3c12 [60J] | > 1000 nM
54 | CN(C)c1ccnc2sc3c(=O)n(-c4ccccc4)cnc3c12 [7D] | < 50 nM
55 | CN(C)c1ccnc2sc3c(=O)n(-c4ccc(Cl)cc4)cnc3c12 [P-2] | < 50 nM

— patent US7989464B2, “mGluR1 antagonists as therapeutic agents” (Schering Corporation, priority 2004, dated 2011)
